Results: patent US8946282B2, “Indolin-2-one derivatives as protein kinase inhibitors” (Annji Pharmaceutical Co., Ltd., priority 2012, dated 2015)

Legend:
[1] = molecular target: aurora B (Homo sapiens, UniProt Q96GD4); assay: radioisotope-based P81 filter-binding assay, aurora B kinase; type: biochemical; settings: for IC50: averaged from two independent dose-response curves, read-out: Enzyme assay IC50 Aur B; for inhibition at 1 µM: compound at 1.0 μM, mean values (n=2), read-out: percent inhibition of enzyme catalytic activity, Aur B (numbers in parentheses)
Chain of aurora B (Q96GD4 whole entry): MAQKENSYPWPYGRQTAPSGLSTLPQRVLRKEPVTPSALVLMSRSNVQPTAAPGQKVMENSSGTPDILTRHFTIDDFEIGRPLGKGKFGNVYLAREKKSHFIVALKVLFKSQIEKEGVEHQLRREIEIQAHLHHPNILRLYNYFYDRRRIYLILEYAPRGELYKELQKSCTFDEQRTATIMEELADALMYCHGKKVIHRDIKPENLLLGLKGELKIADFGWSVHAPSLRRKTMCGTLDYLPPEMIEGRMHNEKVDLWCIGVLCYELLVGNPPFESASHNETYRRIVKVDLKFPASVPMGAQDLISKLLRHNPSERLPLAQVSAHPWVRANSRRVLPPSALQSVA
Procedure: (§1) Compounds of formula (I)-(IV) were evaluated for abilities in inhibiting protein kinases aurora B and FLT-3 activity using radioisotope-based P81 filter-binding assay (Table 1).

[2] = molecular target: T1, FLT-3 (Homo sapiens, UniProt P36888); assay: radioisotope-based P81 filter-binding assay, FLT-3 kinase; type: biochemical; settings: for IC50: averaged from two independent dose-response curves, read-out: Enzyme assay IC50 FLT-3
T1 sequence (P36888 27-993): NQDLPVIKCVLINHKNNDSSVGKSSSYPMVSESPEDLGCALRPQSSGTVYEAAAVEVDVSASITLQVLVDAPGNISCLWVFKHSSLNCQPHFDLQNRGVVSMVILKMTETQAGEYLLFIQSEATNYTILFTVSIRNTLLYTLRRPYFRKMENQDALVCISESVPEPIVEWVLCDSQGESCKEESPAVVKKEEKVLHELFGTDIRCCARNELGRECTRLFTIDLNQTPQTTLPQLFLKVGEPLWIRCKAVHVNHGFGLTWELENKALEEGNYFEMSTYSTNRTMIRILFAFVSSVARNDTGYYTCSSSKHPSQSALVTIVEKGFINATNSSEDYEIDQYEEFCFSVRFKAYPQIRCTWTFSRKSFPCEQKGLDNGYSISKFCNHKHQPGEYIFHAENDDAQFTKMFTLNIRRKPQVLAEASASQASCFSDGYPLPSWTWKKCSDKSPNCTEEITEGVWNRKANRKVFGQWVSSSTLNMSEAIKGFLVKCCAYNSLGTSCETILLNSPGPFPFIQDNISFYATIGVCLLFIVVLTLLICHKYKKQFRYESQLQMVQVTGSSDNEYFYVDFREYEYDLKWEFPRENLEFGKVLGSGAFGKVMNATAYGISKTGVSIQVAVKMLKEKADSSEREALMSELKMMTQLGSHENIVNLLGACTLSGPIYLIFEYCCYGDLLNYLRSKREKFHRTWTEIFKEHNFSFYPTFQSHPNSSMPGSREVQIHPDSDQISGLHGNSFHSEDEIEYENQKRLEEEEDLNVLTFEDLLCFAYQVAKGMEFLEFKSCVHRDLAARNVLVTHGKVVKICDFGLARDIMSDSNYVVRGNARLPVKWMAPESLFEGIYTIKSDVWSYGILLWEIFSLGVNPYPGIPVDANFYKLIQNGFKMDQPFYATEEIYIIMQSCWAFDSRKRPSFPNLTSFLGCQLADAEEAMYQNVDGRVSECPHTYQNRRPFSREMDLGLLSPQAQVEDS
Procedure: as §1

| Structure (SMILES) | IC50 [1] [nM] | IC50 [2] [nM] | melting point | inhibition at 1 µM [1] [%] | inhibition at 1 µM ([2]; compound at 1.0 μM, mean values (n=2), read-out: percent inhibition of enzyme catalytic activity, FLT-3 (numbers in parentheses)) [%] |
| --- | --- | --- | --- | --- | --- |
| Cc1[nH]c(/C=C2\C(=O)Nc3cc(NC(=O)NC(=O)c4ccc(C(F)(F)F)cc4)ccc32)c(C)c1C(=O)O [D35, (Z)-2,4-dimethyl-5-((2-oxo-6-(3-(4-(trifluoromethyl)benzoyl)ureido)indolin-3-ylidene)methyl)-1H-pyrrole-3-carboxylic acid] | 3.1 | 231 | > 300 °C | – | – |
| Cc1[nH]c(/C=C2\C(=O)Nc3cc(NC(=O)NC(=O)c4ccc([N+](=O)[O-])cc4)ccc32)c(C)c1C(=O)O [D38, (Z)-2,4-dimethyl-5-((6-(3-(4-nitrobenzoyl)ureido)-2-oxoindolin-3-ylidene)methyl)-1H-pyrrole-3-carboxylic acid] | 1.2 | > 1000 | 293 to 298 °C (dec.) | – | – |
| Cc1cccc(C(=O)NC(=O)Nc2ccc3c(c2)NC(=O)/C3=C\c2[nH]c(C)c(CCC(=O)O)c2C)c1 [D40, (Z)-3-(2,4-dimethyl-5-((6-(3-(3-methylbenzoyl)ureido)-2-oxoindolin-3-ylidene)-methyl)-1H-pyrrol-3-yl)propanoic acid] | 1.9 | 6.1 | 240 to 245 °C (dec.) | – | – |
| COc1cc(OC)cc(C(=O)NC(=O)Nc2ccc3c(c2)NC(=O)/C3=C\c2[nH]c(C)c(C(=O)O)c2C)c1 [D42, (Z)-5-((6-(3-(3,5-dimethoxybenzoyl)ureido)-2-oxoindolin-3-ylidene)methyl)-2,4-dimethyl-1H-pyrrole-3-carboxylic acid] | 2.1 | 115 | > 300 °C | – | – |
| COc1ccc(C(=O)NC(=O)Nc2ccc3c(c2)NC(=O)/C3=C\c2[nH]c(C)c(-c3ccccc3)c2C)cc1 [D43, (Z)—N-(3-((3,5-dimethyl-4-phenyl-1H-pyrrol-2-yl)methylene)-2-oxoindolin-6-ylcarbamoyl)-4-methoxybenzamide] | – | > 1000 | > 300 °C | 12.4 | – |
| COc1ccc(C(=O)NC(=O)Nc2ccc3c(c2)NC(=O)/C3=C\c2[nH]c(C)cc2C)cc1 [D44, (Z)—N-(3-((3,5-dimethyl-1H-pyrrol-2-yl)methylene)-2-oxoindolin-6-ylcarbamoyl)-4-methoxybenzamide] | 55.5 | > 1000 | 293 to 298 °C | – | – |
| COc1ccc(C(=O)NC(=O)Nc2ccc3c(c2)NC(=O)/C3=C\c2ccc(C(=O)O)[nH]2)cc1 [D45, (Z)-5-((6-(3-(4-methoxybenzoyl)ureido)-2-oxoindolin-3-ylidene)-methyl)-1H-pyrrole-2-carboxylic acid] | – | – | 286 to 291 °C (dec.) | 20.9 | 10 |
| COc1ccc(C(=O)NC(=O)Nc2ccc3c(c2)NC(=O)/C3=C\c2[nH]c(C)c(CC(=O)O)c2C)cc1 [D46] | 1.8 | 31.7 | 240 to 245 °C (dec.) | – | – |
| COc1ccc(C(=O)NC(=O)Nc2cc3c(cc2F)/C(=C/c2ccc[nH]2)C(=O)N3)cc1 [D48, (Z)—N-(3-((1H-pyrrol-2-yl)methylene)-5-fluoro-2-oxoindolin-6-ylcarbamoyl)-4-methoxybenzamide] | 35.1 | > 10000 | > 300 °C | – | – |
| COc1ccc(C(=O)NC(=O)Nc2cc3c(cc2F)/C(=C/c2[nH]c(C)c(CC(=O)O)c2C)C(=O)N3)cc1 [D50, (Z)-2-(5-((5-fluoro-6-(3-(4-methoxybenzoyl)ureido)-2-oxoindolin-3-ylidene)-methyl)-2,4-dimethyl-1H-pyrrol-3-yl)acetic acid] | 1 | > 1000 | 292 to 297 °C (dec.) | – | – |
| O=C(NC(=O)c1ccccc1F)Nc1ccc2c(c1)NC(=O)/C2=C\c1ccc[nH]1 [D52, (Z)—N-(3-((1H-pyrrol-2-yl)methylene)-2-oxoindolin-6-ylcarbamoyl)-2-fluorobenzamide] | 6.5 | > 1000 | 276 to 281 °C (dec.) | – | – |
| COc1ccc(C(=O)NC(=O)Nc2ccc3c(c2)NC(=O)/C3=C\c2[nH]c(C)c(C(=O)O)c2C)c(F)c1 [D57, (Z)-5-((6-(3-(2-fluoro-4-methoxybenzoyl)ureido)-2-oxoindolin-3-ylidene)methyl)-2,4-dimethyl-1H-pyrrol-3-carboxylic acid] | 2.3 | 111 | 295 to 300 °C (dec.) | – | – |
| COc1ccc(C(=O)NC(=O)Nc2cc3c(cc2F)/C(=C/c2[nH]c(C)c(CCC(=O)O)c2C)C(=O)N3)c(F)c1 [D60, (Z)-3-(5-((5-fluoro-6-(3-(2-fluoro-4-methoxybenzoyl)ureido)-2-oxoindolin-3-ylidene)methyl)-2,4-dimethyl-1H-pyrrol-3-yl)propanic acid] | 1.5 | 16.3 | 275 to 280 °C (dec.) | – | – |
| COc1cc(F)c(C(=O)NC(=O)Nc2cc3c(cc2F)/C(=C/c2[nH]c(C)c(C(=O)O)c2C)C(=O)N3)c(F)c1 [D61] | 2.1 | 380 | > 300 °C | – | – |
| CCOC(=O)c1c(C)[nH]c(/C=C2\C(=O)Nc3cc(NC(=O)NC(=O)c4ccc(OC)cc4F)ccc32)c1C [D62, (Z)-ethyl-5-((6-(3-(2-fluoro-4-methoxybenzoyl)ureido)-2-oxoindolin-3-ylidene)methyl)-2,4-dimethyl-1H-pyrrole-3-carboxylate] | 1720 | 2980 | 278 to 283 °C (dec.) | – | – |
| COc1ccc(C(=O)NC(=O)Nc2ccc3c(c2)NC(=O)/C3=C\c2[nH]c(C)c(C(=O)N3CCN(C)CC3)c2C)c(F)c1 [D64, (Z)—N-(3-((3,5-dimethyl-4-(4-methylpiperazine-1-carbonyl)-1H-pyrrol-2-yl)methylene)-2-oxoindolin-6-ylcarbamoyl)-2-fluoro-4-methoxybenzamide] | 30.6 | 57.1 | 250 to 255 °C (dec.) | – | – |
| COc1ccc(C(=O)NC(=O)Nc2ccc3c(c2)NC(=O)/C3=C\c2[nH]c(C)c(CCC(=O)N3CCN(C)CC3)c2C)c(F)c1 [D65, (Z)—N-(3-((3,5-dimethyl-4-(3-(4-methylpiperazin-1-yl)-3-oxopropyl)-1H-pyrrol-2-yl)methylene)-2-oxoindolin-6-ylcarbomoyl)-2-fluoro-4-methoxybenzamide] | 18.4 | 41.4 | 229 to 234 °C (dec.) | – | – |
| COc1ccc(C(=O)NC(=O)Nc2ccc3c(c2)NC(=O)/C3=C\c2[nH]c(C)c(C(=O)N3CCOCC3)c2C)c(F)c1 [D66, (Z)—N-(3-((3,5-dimethyl-4-(morpholine-4-carbonyl)-1H-pyrrol-2-yl)methylene)-2-oxoindolin-6-ylcarbamoyl)-2-fluoro-4-methoxybenzamide] | 16.8 | 79.5 | 273 to 278 °C (dec.) | – | – |
| COc1ccc(C(=O)NC(=O)Nc2ccc3c(c2)NC(=O)/C3=C\c2[nH]c(C)c(CCC(=O)N3CCOCC3)c2C)c(F)c1 [D67] | 16.4 | 106 | 248 to 253 °C (dec.) | – | – |
| CN1CCN(C(=O)Nc2ccc3c(c2)NC(=O)/C3=C\c2ccc[nH]2)C1=O [D80, (Z)—N-(3-((1H-pyrrol-2-yl)methylene)-2-oxoindolin-6-yl)-3-methyl-2-oxoimidazolidine-1-carboxamide] | 1100 | 70.6 | 267 to 272 °C (dec.) | – | – |
| O=C1Nc2cc(NC(=O)N3CCN(C4CC4)C3=O)ccc2/C1=C/c1ccc[nH]1 [D81, (Z)—N-(3-((1H-pyrrol-2-yl)methylene)-2-oxoindolin-6-yl)-3-cyclopropyl-2-oxoimidazolidine-1-carboxamide] | 19.9 | 1800 | 284 to 289 °C (dec.) | – | – |
| O=C1Nc2cc(NC(=O)N3CCN(C4CC4)C3=O)c(F)cc2/C1=C/c1ccc[nH]1 [D82, (Z)—N-(3-((1H-pyrrol-2-yl)methylene)-5-fluoro-2-oxoindolin-6-yl)-3-cyclopropyl-2-oxoimidazolidine-1-carboxamide] | 10.7 | 3330 | > 300 °C | – | – |
| O=C1Nc2cc(NC(=O)N3CCN(c4ccccc4)C3=O)ccc2/C1=C/c1ccc[nH]1 [D83, (Z)—N-(3-((1H-pyrrol-2-yl)methylene)-2-oxoindolin-6-yl)-2-oxo-3-phenylimidazolidine-1-carboxamide] | 17.3 | 359 | 294 to 299 °C (dec.) | – | – |
